{"source": "patent US20110152092A1", "about": "“Herbicidal compositions comprising flufenacet” (Bayer CropScience AG, priority 2009, published 2011)", "key": {"HORVS [1]": {"tested_on": "HORVS", "experiment": "Greenhouse trial, PO application, selective post-emergence action on crop (test method 4)", "type": "in vivo, Hordeum vulgare, summer barley", "conditions": "g of AS/ha: (A) 120, (B) 1200, (C) 120, mixture 120 + 1200 + 120", "protocol": "(§1) In the standard design of the test, seeds of various broad-leaved weed and weed grass biotypes (origins) were sown in a 8-13 cm diameter pot filled with natural soil of a standard field soil (loamy silt; non-sterile) and covered with a covering soil layer of about 1 cm. The pots were then cultivated in a greenhouse (12-16 h of light, temperature day 20-22° C., night 15-18° C.) until the time of application. The pots were treated on a laboratory track sprayer with spray liquors comprising the compositions according to the invention, mixtures of the prior art or components used individually. Application of the active compounds or active compound combinations formulated as WG, WP, EC or otherwise was carried out at the appropriate growth stages of the plants. The application rate for the spray application was 100-600 l of water/ha. After the treatment, the plants were returned to the greenhouses.\n(§2) About 3 weeks after the application, the soil action or/and foliar action was assessed visually according to a scale of 0-100% in comparison to an untreated comparative group: 0%=no noticeable effect compared to the untreated comparative group; 100%=full effect compared to the untreated comparative group. […]"}, "HORVS [2]": {"tested_on": "HORVS", "experiment": "Greenhouse trial, PE application, selective pre-emergence action on crop (test method 3)", "type": "in vivo, Hordeum vulgare, summer barley", "conditions": "g of AS/ha: (A) 90, (B) 1200, (C) 90, mixture 90 + 1200", "protocol": "as §1, §2"}, "AVEFA": {"tested_on": "AVEFA", "experiment": "Greenhouse trial, pre-sowing application 7 days prior to sowing (test method 5)", "type": "in vivo, Avena fatua", "conditions": "g of AS/ha: (A) 90, (B) 1200, (C) 90, mixture 90 + 1200", "protocol": "as §1, §2"}, "HORVS [3]": {"tested_on": "HORVS", "experiment": "Greenhouse trial, pre-sowing application 7 days prior to sowing (test method 5)", "type": "in vivo, Hordeum vulgare, summer barley", "conditions": "g of AS/ha: (A) 90, (B) 1200, (C) 90, mixture 90 + 1200", "protocol": "as §1, §2"}, "TRZAS": {"tested_on": "TRZAS", "experiment": "Greenhouse trial, PE application with different irrigation variations (test method 6)", "type": "in vivo, Triticum aestivum, summer wheat", "conditions": "g of AS/ha: (A) 120, (B) 1200, (C) 90, mixture 120 + 1200 + 90", "protocol": "as §1\n(§3) About 3 weeks after the application, the soil action or/and foliar action was assessed visually according to a scale of 0-100% in comparison to an untreated comparative group: 0%=no noticeable effect compared to the untreated comparative group; 100%=full effect compared to the untreated comparative group.\n(§4) (notes: the term “seeds” also includes vegetative propagation forms such as, for example, rhizome pieces; abbreviations used: h light=hours of illumination, g of AS/ha=gram of active substance per hectare, l/ha=liter per hectare, S=sensitive, R=resistant) • 1. Pre-emergence action against weeds: seeds of various broad-leaved weed and weed grass biotypes (origins) were sown in a 8-13 cm diameter pot filled with natural soil of a standard field soil (loamy silt; non-sterile) and covered with a covering soil layer of about 1 cm. The pots were then cultivated in a greenhouse (12-16 h of light, temperature day 20-22° C., night 15-18° C.) until the time of application. The pots were treated at the BBCH stage 00-10 of the seeds/plants on a laboratory track sprayer with spray liquors comprising the compositions according to the invention, mixtures or components used individually, as WG, WP, EC or other formulations. The application rate for the spray application was 100-600 l of water/ha. After the treatment, the plants were returned to the greenhouses and, when required, treated with fertilizer and watered. • 2. Post-emergence action against weeds: seeds of various broad-leaved weed and weed grass biotypes (origins) were sown in a 8-13 cm diameter pot filled with natural soil of a standard field soil (loamy silt; non-sterile) and covered with a covering soil layer of about 1 cm. The pots were then cultivated in a greenhouse (12-16 h of light, temperature day 20-22° C., night 15-18° C.) until the time of application. […]"}, "STEME": {"tested_on": "STEME", "experiment": "Greenhouse trial, activity with different soil types", "type": "in vivo, Stellaria media", "conditions": "IU/EC73 soil versus IU soil; g of AS/ha: (A) 120, (B) 1200, (C) 90, mixture 120 + 1200 + 90", "protocol": "as §1, §3\n(§5) (notes: the term “seeds” also includes vegetative propagation forms such as, for example, rhizome pieces; abbreviations used: h light=hours of illumination, g of AS/ha=gram of active substance per hectare, l/ha=liter per hectare, S=sensitive, R=resistant) • 1. Pre-emergence action against weeds: seeds of various broad-leaved weed and weed grass biotypes (origins) were sown in a 8-13 cm diameter pot filled with natural soil of a standard field soil (loamy silt; non-sterile) and covered with a covering soil layer of about 1 cm. The pots were then cultivated in a greenhouse (12-16 h of light, temperature day 20-22° C., night 15-18° C.) until the time of application. The pots were treated at the BBCH stage 00-10 of the seeds/plants on a laboratory track sprayer with spray liquors comprising the compositions according to the invention, mixtures or components used individually, as WG, WP, EC or other formulations. The application rate for the spray application was 100-600 l of water/ha. After the treatment, the plants were returned to the greenhouses and, when required, treated with fertilizer and watered. • 2. Post-emergence action against weeds: seeds of various broad-leaved weed and weed grass biotypes (origins) were sown in a 8-13 cm diameter pot filled with natural soil of a standard field soil (loamy silt; non-sterile) and covered with a covering soil layer of about 1 cm. The pots were then cultivated in a greenhouse (12-16 h of light, temperature day 20-22° C., night 15-18° C.) until the time of application. The pots were treated at various BBCH stages between 11-25 of the seeds/plants, i.e. generally between two to three weeks after the start of the cultivation, on a laboratory track sprayer with spray liquors comprising the compositions according to the invention, mixtures or components used individually, as WG, WP, EC or other formulations. The application rate for the spray application was 100-600 l of water/ha. After the treatment, the plants were returned to the greenhouses and, when required, treated with fertilizer and watered. • 3. Selective pre-emergence action: seeds of various crop species (origins) were sown in a 8-13 cm diameter pot filled with natural soil of a standard field soil (loamy silt; non-sterile) and covered with a covering soil layer of about 1 cm. The pots were then cultivated in a greenhouse (12-16 h of light, temperature day 20-22° C., night 15-18° C.) until the time of application. The pots were treated at the BBCH stage 00-10 of the seeds/plants on a laboratory track sprayer with spray liquors comprising the compositions according to the invention, mixtures or components used individually, as WG, WP, EC or other formulations. The application rate for the spray application was 100-600 l of water/ha. […]"}, "HORVS [4]": {"tested_on": "HORVS", "experiment": "Greenhouse trial, activity with different soil types", "type": "in vivo, Hordeum vulgare, summer barley", "conditions": "g of AS/ha: (A) 120, (B) 1200, (C) 90, mixture 120 + 1200 + 90", "protocol": "as §1, §3\n(notes: the term “seeds” also includes vegetative propagation forms such as, for example, rhizome pieces; abbreviations used: h light=hours of illumination, g of AS/ha=gram of active substance per hectare, l/ha=liter per hectare, S=sensitive, R=resistant) • 1. Pre-emergence action against weeds: seeds of various broad-leaved weed and weed grass biotypes (origins) were sown in a 8-13 cm diameter pot filled with natural soil of a standard field soil (loamy silt; non-sterile) and covered with a covering soil layer of about 1 cm. The pots were then cultivated in a greenhouse (12-16 h of light, temperature day 20-22° C., night 15-18° C.) until the time of application. The pots were treated at the BBCH stage 00-10 of the seeds/plants on a laboratory track sprayer with spray liquors comprising the compositions according to the invention, mixtures or components used individually, as WG, WP, EC or other formulations. The application rate for the spray application was 100-600 l of water/ha. After the treatment, the plants were returned to the greenhouses and, when required, treated with fertilizer and watered. • 2. Post-emergence action against weeds: seeds of various broad-leaved weed and weed grass biotypes (origins) were sown in a 8-13 cm diameter pot filled with natural soil of a standard field soil (loamy silt; non-sterile) and covered with a covering soil layer of about 1 cm. The pots were then cultivated in a greenhouse (12-16 h of light, temperature day 20-22° C., night 15-18° C.) until the time of application. The pots were treated at various BBCH stages between 11-25 of the seeds/plants, i.e. generally between two to three weeks after the start of the cultivation, on a laboratory track sprayer with spray liquors comprising the compositions according to the invention, mixtures or components used individually, as WG, WP, EC or other formulations. The application rate for the spray application was 100-600 l of water/ha. After the treatment, the plants were returned to the greenhouses and, when required, treated with fertilizer and watered. • 3. […]"}, "ALOMY": {"tested_on": "ALOMY", "experiment": "Greenhouse trial, PE application on sensitive and resistant biotypes (test method 8)", "type": "in vivo, Alopecurus myosuroides", "conditions": "g of AS/ha: (A) 90, (B) 1200, (C) 90, mixture 90 + 1200 + 90, iodosulfuron 10; for activity ALOMY resistant (visual, scale 0-100%): resistant biotype; for activity ALOMY sensitive (visual, scale 0-100%): sensitive biotype", "protocol": "as §1, §3, §5"}, "TRZAW": {"tested_on": "TRZAW", "experiment": "Greenhouse trial, PE application at different sowing depths (test method 9)", "type": "in vivo, Triticum aestivum, winter wheat", "conditions": "g of AS/ha: (A) 120, (B) 1200, (C) 90, mixture 90 + 1200 + 90", "protocol": "as §1, §3, §4"}}}
{"smiles": "O=C(Nc1ccc(F)cc1F)c1cccnc1Oc1cccc(C(F)(F)F)c1", "note": "[(C) diflufenican, N-(2,4-difluorophenyl)-2-[3-(trifluoromethyl)phenoxy]-3-pyridinecarboxamide]", "values": [{"measurement": "activity on crop plant HORVS (visual, scale 0-100%)", "setting": "HORVS [1]", "result": 5, "unit": "%"}, {"measurement": "activity on crop plant HORVS (visual, scale 0-100%)", "setting": "HORVS [2]", "result": 5, "unit": "%"}, {"measurement": "activity AVEFA (visual, scale 0-100%)", "setting": "AVEFA", "result": 0, "unit": "%"}, {"measurement": "activity on crop plant HORVS (visual, scale 0-100%)", "setting": "HORVS [3]", "result": 30, "unit": "%"}, {"measurement": "activity on crop plant TRZAS (visual, scale 0-100%)", "setting": "TRZAS; irrigation from above", "result": 10, "unit": "%"}, {"measurement": "activity on crop plant TRZAS (visual, scale 0-100%)", "setting": "TRZAS; irrigation from below", "result": 0, "unit": "%"}, {"measurement": "Difference of the soil types, STEME", "setting": "STEME", "result": "−57", "unit": "%"}, {"measurement": "activity on crop plant HORVS IU soil (visual, scale 0-100%)", "setting": "HORVS [4]; IU soil", "result": 0, "unit": "%"}, {"measurement": "activity on crop plant HORVS IU/EC73 soil (visual, scale 0-100%)", "setting": "HORVS [4]; IU/EC73 soil", "result": 0, "unit": "%"}, {"measurement": "activity ALOMY resistant (visual, scale 0-100%)", "setting": "ALOMY", "result": 30, "unit": "%"}, {"measurement": "activity ALOMY sensitive (visual, scale 0-100%)", "setting": "ALOMY", "result": 30, "unit": "%"}, {"measurement": "activity on crop plant TRZAW 5 mm (visual, scale 0-100%)", "setting": "TRZAW; sowing depth 5 mm", "result": 20, "unit": "%"}, {"measurement": "activity on crop plant TRZAW 20 mm (visual, scale 0-100%)", "setting": "TRZAW; sowing depth 20 mm", "result": 20, "unit": "%"}]}
{"smiles": "COc1nc(C)nc(NC(=O)NS(=O)(=O)c2cc(I)ccc2C(=O)O)n1", "note": "[C)^1 iodosulfuron, iodosulfuron]", "values": [{"measurement": "activity ALOMY resistant (visual, scale 0-100%)", "setting": "ALOMY", "result": 50, "unit": "%"}, {"measurement": "activity ALOMY sensitive (visual, scale 0-100%)", "setting": "ALOMY", "result": 98, "unit": "%"}]}
